{"source": "ChEMBL document CHEMBL5032519", "about": "“Divergent synthesis and biological evaluation of 2-(trifluoromethyl)pyridines as virulence-attenuating inverse agonists targeting PqsR” (Eur J Med Chem, 2021)", "key": {"[1]": {"molecular_target": "T1, Transcriptional regulator MvfR (Pseudomonas aeruginosa PA14, UniProt A0A072ZLE6)", "T1 sequence (A0A072ZLE6 whole entry)": "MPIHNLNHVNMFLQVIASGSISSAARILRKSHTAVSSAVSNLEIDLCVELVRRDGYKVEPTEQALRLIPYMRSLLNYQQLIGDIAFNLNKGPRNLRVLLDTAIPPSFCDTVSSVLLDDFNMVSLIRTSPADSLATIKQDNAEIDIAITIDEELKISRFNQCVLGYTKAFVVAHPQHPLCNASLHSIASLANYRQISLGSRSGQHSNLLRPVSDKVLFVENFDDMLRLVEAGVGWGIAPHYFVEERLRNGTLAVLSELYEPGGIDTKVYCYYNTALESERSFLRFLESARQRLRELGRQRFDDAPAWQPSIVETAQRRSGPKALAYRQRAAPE", "assay": "Inverse agonist activity at PqsR in Pseudomonas aeruginosa assessed as reduction in pyocyanin production"}, "[2]": {"assay": "Inverse agonist activity at PqsR in Escherichia coli […] by cell-based reporter gene assay"}, "[3]": {"assay": "Half life in human S9 fraction", "assay_type": "ADME, subcellular"}, "[4]": {"molecular_target": "T2, Transcriptional regulator MvfR (Pseudomonas aeruginosa PA14) (UniProt A0A072ZLE6)", "T2 sequence (whole entry)": "T1 sequence (A0A072ZLE6 whole entry)", "assay": "Inverse agonist activity at PqsR in Pseudomonas aeruginosa assessed as reduction in pyocyanin production at 10 uM relative to control", "set-up": "scale not given: the % may be the effect or the level left", "conditions": "filed as inverse agonist"}, "[5]": {"system": "Escherichia coli", "assay": "Inverse agonist activity at PqsR in Escherichia coli […] by measuring remaining activity at 1 uM by cell-based reporter gene assay relative to control"}, "[6]": {"system": "Pseudomonas aeruginosa", "assay": "Antibiofilm activity against Pseudomonas aeruginosa assessed as reduction in CFU at 0.5 ug/ml", "assay_type": "functional, organism-based", "conditions": "dose 0.5 µg/ml"}, "[7]": {"assay": "Cytotoxicity against HEK293 cells", "assay_type": "cell-based", "conditions": "human, read-out: LD50 (the source's name)"}, "[8]": {"assay": "Kinetic solubility of compound", "assay_type": "physicochemical", "conditions": "read-out: Kinetic_solubility"}, "[9]": {"assay": "Cytotoxicity against human HepG2 cells", "assay_type": "cell-based", "conditions": "read-out: LD50 (the source's name)"}, "[10]": {"molecular_target": "T2, Transcriptional regulator MvfR (Pseudomonas aeruginosa PA14)", "assay": "Inverse agonist activity at PqsR in Pseudomonas aeruginosa assessed as reduction in pyocyanin production at 0.2 uM relative to control", "set-up": "scale not given: the % may be the effect or the level left"}, "[11]": {"system": "Pseudomonas aeruginosa", "assay": "Antibiofilm activity against Pseudomonas aeruginosa assessed as reduction in CFU at 50 uM in presence of TOB", "assay_type": "functional, organism-based"}, "[12]": {"system": "Pseudomonas aeruginosa", "assay": "Antibiofilm activity against Pseudomonas aeruginosa assessed as reduction in CFU at 50 uM", "assay_type": "functional, organism-based"}}, "note": "The source made the active and inactive calls. The calls are words filed in the database; no cut-off is given here."}
{"smiles": "FC(F)(F)c1cc(NC/C=C/c2ccc(Oc3ccccc3)cc2)ccn1", "values": [{"measurement": "IC50", "setting": "[1]", "value": 3830, "unit": "nM"}, {"measurement": "IC50", "setting": "[2]", "value": 464, "unit": "nM"}]}
{"smiles": "Nc1cc(NCCCc2ccc(F)cc2)cc(C(F)(F)F)n1", "values": [{"measurement": "IC50", "setting": "[1]", "value": 6900, "unit": "nM"}, {"measurement": "half-life", "setting": "[3]", "value": 56, "unit": "min"}, {"measurement": "IC50", "setting": "[2]", "value": 140, "unit": "nM"}]}
{"smiles": "FC(F)(F)c1cc(NC/C=C/c2ccc(Cl)cc2)ccn1", "values": [{"measurement": "Activity", "setting": "[4]", "value": 93, "unit": "%"}, {"measurement": "IC50", "setting": "[2]", "value": 479, "unit": "nM"}]}
{"smiles": "CCOc1ccc(C#CCNc2ccnc(C(F)(F)F)c2)cc1", "values": [{"measurement": "IC50", "setting": "[1]", "value": 390, "unit": "nM"}, {"measurement": "IC50", "setting": "[2]", "value": 170, "unit": "nM"}]}
{"smiles": "FC(F)(F)c1cc(NCC#Cc2ccc(Br)cc2)ccn1", "values": [{"measurement": "Activity", "setting": "[5]", "value": 115, "unit": "%"}]}
{"smiles": "CC(C)Oc1ccc(C#CCNc2ccnc(C(F)(F)F)c2)cc1", "values": [{"measurement": "IC50", "setting": "[1]", "value": 650, "unit": "nM"}]}
{"smiles": "Oc1ccc(C#CCNc2ccnc(C(F)(F)F)c2)cc1", "values": [{"measurement": "Activity", "setting": "[5]", "value": 82, "unit": "%"}]}
{"smiles": "FC(F)(F)c1cc(NCCCc2ccc(Cl)cc2)ccn1", "values": [{"measurement": "IC50", "setting": "[1]", "value": 1050, "unit": "nM"}, {"measurement": "IC50", "setting": "[2]", "value": 149, "unit": "nM"}]}
{"smiles": "NC[C@H]1O[C@H](O[C@H]2[C@H](O)[C@@H](O[C@H]3O[C@H](CO)[C@@H](O)[C@H](N)[C@H]3O)[C@H](N)C[C@@H]2N)[C@H](N)C[C@@H]1O", "values": [{"measurement": "Activity", "setting": "[6]", "value": "inactive"}]}
{"smiles": "FC(F)(F)c1cc(NCc2cn(-c3ccc(Oc4ccccc4)cc3)nn2)ccn1", "values": [{"measurement": "half-life", "setting": "[3]", "value": 169, "unit": "min"}]}
{"smiles": "FC(F)(F)c1cc(NCC#Cc2ccc(Cl)cn2)ccn1", "values": [{"measurement": "Activity", "setting": "[5]", "value": 53, "unit": "%"}]}
{"smiles": "FC(F)(F)c1cc(NC/C=C/c2ccc(Cl)nc2)ccn1", "values": [{"measurement": "Activity", "setting": "[5]", "value": 81, "unit": "%"}]}
{"smiles": "FC(F)(F)c1cc(NCC#Cc2ccc(Oc3ccccc3)cc2)ccn1", "values": [{"measurement": "CC50", "setting": "[7]", "value": 10000, "unit": "nM"}, {"measurement": "IC50", "setting": "[1]", "value": 490, "unit": "nM"}, {"measurement": "solubility kinetic", "setting": "[8]", "value": 13.2, "unit": "µM"}, {"measurement": "half-life", "setting": "[3]", "value": 53, "unit": "min"}, {"measurement": "IC50", "setting": "[2]", "value": 20, "unit": "nM"}, {"measurement": "CC50", "setting": "[9]", "value": "> 25000", "unit": "nM"}]}
{"smiles": "COc1ccc(C#CCNc2ccnc(C(F)(F)F)c2)cc1C", "values": [{"measurement": "Activity", "setting": "[10]", "value": 5, "unit": "%"}, {"measurement": "IC50", "setting": "[2]", "value": 289, "unit": "nM"}]}
{"smiles": "COc1ccc(C#CCNc2ccnc(C(F)(F)F)c2)cc1Cl", "values": [{"measurement": "Activity", "setting": "[10]", "value": 4, "unit": "%"}, {"measurement": "Activity", "setting": "[5]; filed as inverse agonist", "value": 29, "unit": "%"}]}
{"smiles": "Fc1ccc(C#CCNc2ccnc(C(F)(F)F)c2)cc1", "values": [{"measurement": "CC50", "setting": "[7]", "value": "> 50000", "unit": "nM"}, {"measurement": "IC50", "setting": "[1]", "value": 3470, "unit": "nM"}, {"measurement": "solubility kinetic", "setting": "[8]", "value": "> 200", "unit": "µM"}, {"measurement": "half-life", "setting": "[3]", "value": 61.2, "unit": "min"}, {"measurement": "IC50", "setting": "[2]", "value": 141, "unit": "nM"}, {"measurement": "CC50", "setting": "[9]", "value": "> 50000", "unit": "nM"}]}
{"smiles": "FC(F)(F)c1cc(NCC#Cc2ccc(Cl)c(Cl)c2)ccn1", "values": [{"measurement": "Activity", "setting": "[5]; filed as inverse agonist", "value": 35, "unit": "%"}]}
{"smiles": "COc1cccc(C#CCNc2ccnc(C(F)(F)F)c2)c1", "values": [{"measurement": "Activity", "setting": "[5]", "value": 58, "unit": "%"}]}
{"smiles": "CC(C)Oc1ccc(C#CCNc2ccnc(C(F)(F)F)c2)cc1Cl", "values": [{"measurement": "IC50", "setting": "[1]", "value": 560, "unit": "nM"}, {"measurement": "IC50", "setting": "[2]", "value": 129, "unit": "nM"}]}
{"smiles": "FC(F)(F)c1cc(NCCCc2ccccc2)ccn1", "values": [{"measurement": "Activity", "setting": "[5]", "value": 52, "unit": "%"}]}
{"smiles": "COc1ccc(C#CCNc2ccnc(C(F)(F)F)c2)cc1F", "values": [{"measurement": "IC50", "setting": "[1]", "value": 3170, "unit": "nM"}]}
{"smiles": "Fc1ccc(CCCNc2ccnc(C(F)(F)F)c2)cc1", "values": [{"measurement": "CC50", "setting": "[7]", "value": 25000, "unit": "nM"}, {"measurement": "IC50", "setting": "[1]", "value": 3650, "unit": "nM"}, {"measurement": "solubility kinetic", "setting": "[8]", "value": 93.9, "unit": "µM"}, {"measurement": "half-life", "setting": "[3]", "value": 32.7, "unit": "min"}, {"measurement": "IC50", "setting": "[2]", "value": 251, "unit": "nM"}]}
{"smiles": "CCOc1ccc(C#CCNc2ccnc(C(F)(F)F)c2)cc1F", "values": [{"measurement": "CC50", "setting": "[7]", "value": 56900, "unit": "nM"}, {"measurement": "IC50", "setting": "[1]", "value": 250, "unit": "nM"}, {"measurement": "solubility kinetic", "setting": "[8]", "value": 60.4, "unit": "µM"}, {"measurement": "half-life", "setting": "[3]", "value": 13, "unit": "min"}]}
{"smiles": "FC(F)(F)c1cc(NCCCc2ccc(Oc3ccccc3)cc2)ccn1", "values": [{"measurement": "Activity", "setting": "[10]", "value": 0, "unit": "%"}, {"measurement": "Activity", "setting": "[5]; filed as inverse agonist", "value": -41, "unit": "%"}]}
{"smiles": "COc1ccc(C#CCNc2ccnc(C(F)(F)F)c2)cc1", "values": [{"measurement": "Activity", "setting": "[5]; filed as inverse agonist", "value": 8, "unit": "%"}]}
{"smiles": "COc1cccc(CCCNc2ccnc(C(F)(F)F)c2)c1", "values": [{"measurement": "Activity", "setting": "[5]", "value": 59, "unit": "%"}]}
{"smiles": "Fc1ccc(C#CCNc2ccnc(C(F)(F)F)c2)c(F)c1", "values": [{"measurement": "Activity", "setting": "[5]", "value": 70, "unit": "%"}]}
{"smiles": "FC(F)(F)c1cc(SCC#Cc2ccc(Cl)cc2)ccn1", "values": [{"measurement": "CC50", "setting": "[7]", "value": "> 100000", "unit": "nM"}, {"measurement": "solubility kinetic", "setting": "[8]", "value": 42.4, "unit": "µM"}, {"measurement": "half-life", "setting": "[3]", "value": 43.9, "unit": "min"}, {"measurement": "CC50", "setting": "[9]", "value": "> 100000", "unit": "nM"}]}
{"smiles": "Fc1cccc(C#CCNc2ccnc(C(F)(F)F)c2)c1", "values": [{"measurement": "IC50", "setting": "[2]", "value": 222, "unit": "nM"}]}
{"smiles": "FC(F)(F)c1cc(NCC#Cc2ccc(Cl)cc2)ccn1", "values": [{"measurement": "IC50", "setting": "[1]", "value": 7970, "unit": "nM"}, {"measurement": "IC50", "setting": "[2]", "value": 281, "unit": "nM"}]}
{"smiles": "CC(C)Oc1ccc(C#CCNc2ccnc(C(F)(F)F)c2)cc1F", "values": [{"measurement": "CC50", "setting": "[7]", "value": 61900, "unit": "nM"}, {"measurement": "Activity", "setting": "[11]", "value": "Active"}, {"measurement": "IC50", "setting": "[1]", "value": 440, "unit": "nM"}, {"measurement": "Activity", "setting": "[12]", "value": "Active"}, {"measurement": "solubility kinetic", "setting": "[8]", "value": 58.8, "unit": "µM"}, {"measurement": "half-life", "setting": "[3]", "value": 25.3, "unit": "min"}, {"measurement": "IC50", "setting": "[2]", "value": 80, "unit": "nM"}, {"measurement": "CC50", "setting": "[9]", "value": 69800, "unit": "nM"}]}
{"smiles": "FC(F)(F)c1cc(NC/C=C\\c2ccc(Cl)nc2)ccn1", "values": [{"measurement": "Activity", "setting": "[5]; filed as inverse agonist", "value": 45, "unit": "%"}]}
{"smiles": "CCOc1ccc(C#CCNc2ccnc(C(F)(F)F)c2)cc1Cl", "values": [{"measurement": "IC50", "setting": "[1]", "value": 390, "unit": "nM"}, {"measurement": "IC50", "setting": "[2]", "value": 150, "unit": "nM"}]}
{"smiles": "FC(F)(F)c1cc(NCC#Cc2ccc(Cl)nc2)ccn1", "values": [{"measurement": "Activity", "setting": "[5]; filed as inverse agonist", "value": 33, "unit": "%"}]}
